{"source": "patent US20210220368A1", "about": "“COMPOSITIONS COMPRISING TIMOLOL AND THEIR USE IN THE TREATMENT OF ROSACEA BY TOPICAL ADMINISTRATION” (Almirall, S.A., priority 2016, published 2021)", "key": {"TPA-induced ear oedema [1]": {"system": "TPA-induced ear oedema", "test": "TPA-induced ear oedema model in Balb/c mice", "format": "in vivo", "settings": "timolol 1%, brimonidine 0.2% in acetone, topical, 30 min before and 15 min after TPA; ear weight at T+6 h; p<0.005", "procedure": "Evaluation of the Anti-Oedema Effect of Timolol and Brimonidine after Two Topical Applications in the TPA-Induced Ear Oedema Model in Balb/c Mice.\nThe oedema is induced by means of a single application to the right ear of the mouse of 20 μl of a solution of TPA (phorbol 12-myristate 13-acetate) in acetone at 0.01%. The test compounds are diluted in acetone and applied 30 minutes before and 15 minutes after TPA. The weight of the mouse ears is measured at T+6 h and the weight of the left ear is subtracted from the one of the right ear.\nTimolol was applied at a concentration of 1% before and after TPA application. The alpha agonist, brimonidine 0.2% was also tested for comparison.\nEach group included 12 animals. Numbers above the bars indicate the percentage inhibition of the corresponding group of treated animals vs the control group."}, "[2]": {"system": "capsaicin-induced vasodilation", "test": "Vasodilation (erythema) induced by topical capsaicin in the ear of CD1 mice", "format": "in vivo, CD-1 mice", "settings": "timolol 1%, brimonidine 0.33%, oxymetazoline 0.88% solutions, topical to the ear before capsaicin; peak erythema 45 min after capsaicin, Mexameter", "procedure": "Evaluation of the Effect of Topical Timolol, Brimonidine and Oxymetazoline in Vasodilation Induced by Topical Application of Capsaicin in the Ear of CD1 Mice\nNeurogenic skin inflammation was induced by capsaicin (Alacapsin 0.075% cream) on the ear of CD-1 mice. Capsaicin induces the release of neuropeptides most of which have vasodilatory properties. In this model vasodilation is evaluated with a narrowband spectrophotometer probe (Mexameter) that measures peak absorption of haemoglobin. The quantity of light absorbed by the skin is calculated as Mexameter® arbitrary units, and this measure of erythema can be considered a surrogate of vasodilation. […] Treatment effects are reported at this maximal induction of erythema.\nTimolol 1%, brimonidine 0.33% and oxymetazoline 0.88% solutions were applied topically to the mouse ear before capsaicin induction.\nResults described represent peak erythema of four groups of animals and are reported as mexameter arbitrary units. Each group included 6-12 animals. Numbers above the bars indicate the percentage inhibition of the corresponding group vs the capsaicin control group."}, "TPA-induced ear oedema [3]": {"system": "TPA-induced ear oedema", "settings": "topical brimonidine 0.2%, mice; Piwnica et al., J. Dermatol. Sci. 2014; cited from earlier work"}, "[4]": {"system": "erythematotelangiectatic rosacea", "settings": "topical timolol, human subjects with erythematotelangiectatic rosacea; Jaque et al., Rev. Chilena Dermatol 2012; cited from earlier work"}}}
{"smiles": "Brc1c(NC2=NCCN2)ccc2nccnc12", "note": "[brimonidine]", "values": [{"measurement": "inhibition of ear oedema vs control group", "setting": "TPA-induced ear oedema [1]", "value": "around 50%"}, {"measurement": "percentage inhibition of ear vasodilation (erythema) vs capsaicin control group", "setting": "[2]", "value": 56, "unit": "%"}, {"measurement": "inhibition of TPA-induced ear oedema", "setting": "TPA-induced ear oedema [3]", "value": 50, "unit": "%"}]}
{"smiles": "Cc1cc(C(C)(C)C)c(O)c(C)c1CC1=NCCN1", "note": "[oxymetazoline]", "values": [{"measurement": "percentage inhibition of ear vasodilation (erythema) vs capsaicin control group", "setting": "[2]", "value": 60, "unit": "%"}]}
{"smiles": "CC(C)(C)NC[C@H](O)COc1nsnc1N1CCOCC1", "note": "[timolol, (S)-1-(tert-butylamino)-3-[(4-morpholin-4-yl-1,2,5-thiadiazol-3-yl)oxy]propan-2-ol]", "values": [{"measurement": "clinical benefit", "setting": "[4]", "value": "no clinical benefit"}, {"measurement": "inhibition of ear oedema vs control group", "setting": "TPA-induced ear oedema [1]", "value": "around 50%"}, {"measurement": "percentage inhibition of ear vasodilation (erythema) vs capsaicin control group", "setting": "[2]", "value": 44, "unit": "%"}]}
